Columns and labels:
VERPE [1] = experiment: Post-emergence herbicidal action against VERPE; format: in vivo, Veronica persica
Method in brief: (§1)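 A WP or EC formulation diluted in water with 0.2% wetting agent was sprayed at 600 to 800 l/ha onto one-leaf-stage plants grown in sandy loam. About 3 weeks later, action was rated visually in percent, 100% being dead plants.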

ABUTH [2] = experiment: Pre-emergence herbicidal action against ABUTH; format: in vivo, Abutilon theophrasti
Method in brief: (§2)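 Greenhouse pots of sandy loam held seeds covered with soil, onto which the compound was applied before emergence. An aqueous suspension or emulsion of WP or EC was used at 600 to 800 l/ha with 0.2% wetting agent. Percent damage was judged visually at 3 weeks.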

SETVI [3] = experiment: Pre-emergence herbicidal action against SETVI; format: in vivo, Setaria viridis
Method in brief: as §2

VIOTR [4] = experiment: Post-emergence herbicidal action against VIOTR; format: in vivo, Viola tricolor
Method in brief: as §1

ALOMY [5] = experiment: Post-emergence herbicidal action against ALOMY; format: in vivo, Alopecurus myosuroides; conditions: visual assessment about 3 weeks after treatment vs untreated controls
Method in brief: as §1

AVEFA [6] = experiment: Post-emergence herbicidal action against AVEFA; format: in vivo, Avena fatua; conditions: 20 g/ha, visual assessment about 3 weeks after treatment, 100% = plants have died, 0% = like control plants
Method in brief: as §1

MATIN [7] = experiment: Pre-emergence herbicidal action against MATIN; format: in vivo, Matricaria inodora
Method in brief: as §2

SETVI [8] = experiment: Post-emergence herbicidal action against SETVI; format: in vivo, Setaria viridis
Method in brief: as §1

AMARE [9] = experiment: Pre-emergence herbicidal action against AMARE; format: in vivo, Amaranthus retroflexus
Method in brief: as §2

VIOTR [10] = experiment: Pre-emergence herbicidal action against VIOTR; format: in vivo, Viola tricolor
Method in brief: as §2

PHBPU [11] = experiment: Pre-emergence herbicidal action against PHBPU; format: in vivo, Pharbitis purpurea; conditions: dosage 80 g/ha
Method in brief: as §2

VERPE [12] = experiment: Pre-emergence herbicidal action against VERPE; format: in vivo, Veronica persica; conditions: dosage 80 g/ha
Method in brief: as §2

AMARE [13] = experiment: Post-emergence herbicidal action against AMARE; format: in vivo, Amaranthus retroflexus; conditions: 20 g/ha, visual assessment about 3 weeks after treatment, 100% = plants have died, 0% = like control plants
Method in brief: as §1

POLCO = experiment: Pre-emergence herbicidal action against POLCO; format: in vivo, Polygonum convolvulus
Method in brief: as §2

MATIN [14] = experiment: Post-emergence herbicidal action against MATIN; format: in vivo, Matricaria inodora
Method in brief: as §1

ECHCG [15] = experiment: Pre-emergence herbicidal action against ECHCG; format: in vivo, Echinochloa crus-galli; conditions: 80 g/ha
Method in brief: as §2

DIGSA [16] = experiment: Pre-emergence herbicidal action against DIGSA; format: in vivo, Digitaria sanguinalis
Method in brief: as §2

ALOMY [17] = experiment: Pre-emergence herbicidal action against ALOMY; format: in vivo, Alopecurus myosuroides; conditions: 80 g/ha, pre-emergence, scored visually after 3 weeks vs untreated controls (100% = plants have died, 0% = like control plants)
Method in brief: as §2

ABUTH [18] = experiment: Post-emergence herbicidal action against ABUTH; format: in vivo, Abutilon theophrasti; conditions: visual assessment about 3 weeks after treatment vs untreated controls
Method in brief: as §1

DIGSA [19] = experiment: Post-emergence herbicidal action against DIGSA; format: in vivo, Digitaria sanguinalis; conditions: 20 g/ha
Method in brief: as §1

PHBPU [20] = experiment: Post-emergence herbicidal action against PHBPU; format: in vivo, Pharbitis purpurea
Method in brief: as §1

AVEFA [21] = experiment: Pre-emergence herbicidal action against AVEFA; format: in vivo, Avena fatua; conditions: pre-emergence
Method in brief: as §2

ECHCG [22] = experiment: Post-emergence herbicidal action against ECHCG; format: in vivo, Echinochloa crus-galli
Method in brief: as §1

[23] = 80 g/ha, scored visually after 3 weeks vs untreated controls (100% = plants have died, 0% = like control plants)
[24] = dosage 20 g/ha, scored visually after 3 weeks vs untreated controls, 100% = plants have died, 0% = like control plants
[25] = 20 g/ha, scored visually after 3 weeks vs untreated controls, 100% = plants have died, 0% = like control plants
[26] = Tripleurospermum inodorum, 504 h, dosage 20 g/ha

CCc1c(C(=O)Nc2nnnn2CC)ccc(C(F)(F)F)c1C(=O)NC [Example 2-271]
Post-emergence action against VERPE in % (VERPE [1]; 5 g/ha): 80%
Post-emergence action against VERPE in % (VERPE [1]; 20 g/ha): 90%
Pre-emergence action against ABUTH (herbicidal activity) (ABUTH [2]; [23]): 100%
Pre-emergence action against ABUTH (herbicidal activity in percent) (ABUTH [2]; [24]): 100%
Pre-emergence action against SETVI in % (SETVI [3]; dosage 20 g/ha): 100%
Pre-emergence action against SETVI in % (SETVI [3]; dosage 80 g/ha): 100%
Post-emergence action against VIOTR in % (VIOTR [4]; 5 g/ha): 80%
Post-emergence action against VIOTR in % (VIOTR [4]; 20 g/ha): 80%
Post-emergence action against ALOMY in % (ALOMY [5]; dosage 20 g/ha): 100%
Post-emergence action at 20 g/ha against AVEFA in % (AVEFA [6]): 80%
Pre-emergence action against MATIN in % (MATIN [7]; dosage 20 g/ha): 100%
Pre-emergence action against MATIN in % (MATIN [7]; dosage 80 g/ha): 100%
Post-emergence action against SETVI in % (SETVI [8]; dosage 5 g/ha): 100%
Post-emergence action against SETVI in % (SETVI [8]; dosage 20 g/ha): 100%
Pre-emergence action against AMARE in % (AMARE [9]; [25]): 100%
Pre-emergence action against AMARE in % (AMARE [9]; [23]): 100%
Pre-emergence action against VIOTR in % (VIOTR [10]; dosage 20 g/ha): 100%
Pre-emergence action against VIOTR in % (VIOTR [10]; dosage 80 g/ha): 100%
Pre-emergence action against PHBPU in % (PHBPU [11]): 100%
Pre-emergence action against VERPE in % (VERPE [12]): 100%
Post-emergence action at 20 g/ha against AMARE in % (AMARE [13]): 100%
Pre-emergence action against POLCO in % (POLCO; dosage 80 g/ha): 80%
Post-emergence action against MATIN in % (MATIN [14]; dosage 5 g/ha): 100%
Post-emergence action against MATIN in % (MATIN [14]; dosage 20 g/ha): 100%
Pre-emergence action against ECHCG in % (ECHCG [15]): 100%
Pre-emergence action against DIGSA in % (DIGSA [16]; dosage 20 g/ha): 100%
Pre-emergence action against DIGSA in % (DIGSA [16]; dosage 80 g/ha): 100%
Pre-emergence action against ALOMY (herbicidal activity) (ALOMY [17]): 80%
Post-emergence action against ABUTH in % (ABUTH [18]; dosage 5 g/ha): 100%
Post-emergence action against ABUTH in % (ABUTH [18]; dosage 20 g/ha): 100%

CCn1nnnc1NC(=O)c1ccc(C(F)(F)F)c(C(=O)NC(C)C2CC2)c1C (stereo not drawn) [Example 2-31]
Post-emergence action against VERPE in % (VERPE [1]; 20 g/ha): 80%
Pre-emergence action against ABUTH (herbicidal activity) (ABUTH [2]; [23]): 100%
Pre-emergence action against ABUTH (herbicidal activity in percent) (ABUTH [2]; [24]): 100%
Pre-emergence action against SETVI in % (SETVI [3]; dosage 80 g/ha): 100%
Post-emergence action against DIGSA (DIGSA [19]): 80%
Post-emergence action against ALOMY in % (ALOMY [5]; dosage 20 g/ha): 80%
Post-emergence action against PHBPU in % (PHBPU [20]; dosage 5 g/ha): 80%
Post-emergence action against PHBPU in % (PHBPU [20]; dosage 20 g/ha): 90%
Post-emergence action at 20 g/ha against AVEFA in % (AVEFA [6]): 80%
Pre-emergence action against MATIN in % (MATIN [7]; dosage 20 g/ha): 100%
Pre-emergence action against MATIN in % (MATIN [7]; dosage 80 g/ha): 100%
Pre-emergence action against AVEFA in % (AVEFA [21]; 80 g/ha): 100%
Pre-emergence action against AMARE in % (AMARE [9]; [25]): 100%
Pre-emergence action against AMARE in % (AMARE [9]; [23]): 100%
Pre-emergence action against VIOTR in % (VIOTR [10]; dosage 20 g/ha): 100%
Pre-emergence action against VIOTR in % (VIOTR [10]; dosage 80 g/ha): 100%
Pre-emergence action against PHBPU in % (PHBPU [11]): 80%
Post-emergence action at 20 g/ha against AMARE in % (AMARE [13]): 80%
Pre-emergence action against POLCO in % (POLCO; dosage 20 g/ha): 80%
Pre-emergence action against POLCO in % (POLCO; dosage 80 g/ha): 80%
Post-emergence action against MATIN in % (MATIN [14]; dosage 5 g/ha): 80%
Post-emergence action against MATIN in % (MATIN [14]; dosage 20 g/ha): 80%
Pre-emergence action against ECHCG in % (ECHCG [15]): 100%
Post-emergence action against ECHCG in % (ECHCG [22]; dosage 5 g/ha): 80%
Post-emergence action against ECHCG in % (ECHCG [22]; dosage 20 g/ha): 90%
Pre-emergence action against DIGSA in % (DIGSA [16]; dosage 20 g/ha): 100%
Pre-emergence action against DIGSA in % (DIGSA [16]; dosage 80 g/ha): 100%
Pre-emergence action against ALOMY (herbicidal activity) (ALOMY [17]): 80%
Post-emergence action against ABUTH in % (ABUTH [18]; dosage 20 g/ha): 80%

CCn1nnnc1NC(=O)c1ccc(C(F)F)c(C(=O)NC(C)C)c1C [Example 2-345]
pest or weed control at 20 g/ha (VERPE [1]; Veronica persica, 504 h, 20 g/ha): 80%
pest or weed control at 80 g/ha (ABUTH [2]; Abutilon theophrasti, 504 h, 80 g/ha, scored visually after 3 weeks vs untreated controls (100% = plants have died, 0% = like control plants)): 100%
pest or weed control at 20 g/ha (ABUTH [2]; Abutilon theophrasti, 504 h, dosage 20 g/ha, scored visually after 3 weeks vs untreated controls, 100% = plants have died, 0% = like control plants, read-out: Pre-emergence action against ABUTH (herbicidal activity in percent)): 90%
pest or weed control at 80 g/ha (SETVI [3]; Setaria viridis, 504 h, dosage 80 g/ha): 100%
pest or weed control at 5 g/ha (VIOTR [4]; Viola tricolor, 504 h, 5 g/ha): 90%
pest or weed control at 20 g/ha (VIOTR [4]; Viola tricolor, 504 h, 20 g/ha): 90%
pest or weed control at 5 g/ha (ALOMY [5]; Alopecurus myosuroides, 504 h, dosage 5 g/ha): 80%
pest or weed control at 20 g/ha (ALOMY [5]; Alopecurus myosuroides, 504 h, dosage 20 g/ha): 80%
pest or weed control at 20 g/ha (PHBPU [20]; Ipomoea purpurea, 504 h, dosage 20 g/ha): 100%
pest or weed control at 20 g/ha (AVEFA [6]; Avena fatua, 504 h): 80%
pest or weed control at 20 g/ha (MATIN [7]; [26]): 100%
pest or weed control at 80 g/ha (MATIN [7]; Tripleurospermum inodorum, 504 h, dosage 80 g/ha): 100%
pest or weed control at 5 g/ha (SETVI [8]; Setaria viridis, 504 h, dosage 5 g/ha): 80%
pest or weed control at 20 g/ha (SETVI [8]; Setaria viridis, 504 h, dosage 20 g/ha): 100%
pest or weed control at 80 g/ha (AVEFA [21]; Avena fatua, 504 h, 80 g/ha): 80%
pest or weed control at 20 g/ha (AVEFA [21]; Avena fatua, 504 h, 20 g/ha, scored visually after 3 weeks, 100% = plants have died, 0% = like control plants): 80%
pest or weed control at 20 g/ha (AMARE [9]; Amaranthus retroflexus, 504 h, 20 g/ha, scored visually after 3 weeks vs untreated controls, 100% = plants have died, 0% = like control plants): 100%
pest or weed control at 80 g/ha (AMARE [9]; Amaranthus retroflexus, 504 h, 80 g/ha, scored visually after 3 weeks vs untreated controls, 100% = plants have died, 0% = like control plants): 100%
pest or weed control at 20 g/ha (VIOTR [10]; Viola tricolor, 504 h, dosage 20 g/ha): 80%
pest or weed control at 80 g/ha (VIOTR [10]; Viola tricolor, 504 h, dosage 80 g/ha): 100%
pest or weed control at 80 g/ha (PHBPU [11]; Ipomoea purpurea, 504 h): 80%
pest or weed control at 80 g/ha (VERPE [12]; Veronica persica, 504 h): 100%
pest or weed control at 20 g/ha (AMARE [13]; Amaranthus retroflexus, 504 h): 100%
pest or weed control at 80 g/ha (POLCO; Fallopia convolvulus, 504 h, dosage 80 g/ha): 90%
pest or weed control at 5 g/ha (MATIN [14]; Tripleurospermum inodorum, 504 h, dosage 5 g/ha): 90%
pest or weed control at 20 g/ha (MATIN [14]; [26]): 100%
pest or weed control at 80 g/ha (ECHCG [15]; Echinochloa crus-galli, 504 h): 90%
pest or weed control at 20 g/ha (ECHCG [22]; Echinochloa crus-galli, 504 h, dosage 20 g/ha): 80%
pest or weed control at 80 g/ha (ALOMY [17]; Alopecurus myosuroides, 504 h): 80%
pest or weed control at 5 g/ha (ABUTH [18]; Abutilon theophrasti, 504 h, dosage 5 g/ha): 90%
pest or weed control at 20 g/ha (ABUTH [18]; Abutilon theophrasti, 504 h, dosage 20 g/ha): 90%

— patent US12655116B2, “Substituted isophthalic acid diamides” (Bayer Aktiengesellschaft, priority 2020, dated 2026)
